One experiment relates to Raw 264.7 cell line. As to the kind of experiment: NO scavenging activity in LPS-treated immune cells (Griess reagent). It is filed as cell-based. The conditions noted are these: 24 hours; for activity at 10 µM: Mus musculus, RAW264.7, Raw 264.7, LPS 500 ng/mL, read-out: NO Scavenging Activity (%) (Mean±SD). The protocol:
Raw 264.7 cell line was seeded in a 48-well plate at a density of 8×10^4 cells/well, and cultured at 37°C in a DMEM medium including 10% FBS, 100 U/mL of penicillin and 100 µg/mL of streptomycin.
The medium was cultured overnight, and then replaced with a fresh medium including 10 µM of the pharmaceutical composition sensitive to nitrogen monoxide including the compound of each of Examples 1 to 30 and 500 ng/mL of LPS, and the fresh medium was cultured again for another 24 hours.
Lastly, in order to measure the amount of NO produced, the amount of NO2^- present in the cell culture medium was measured using a Griess reagent (sulfanilamide, N-1-naphthylethylenediamine dihydrochloride). Specifically, 100 µL of a Griess reagent was mixed with a mixture solution of 50 µL of the cell culture medium and 50 µL of PBS. The mixture solution was reacted for 10 minutes in a well plate, and absorbance thereof at 540 nm was measured.

Experiment [1] is described as follows: DAF-2 assay of NO scavenging activity (NO donor SNAP). It is filed as biochemical. As to conditions: DAF-2 10 µM, SNAP 100 µM, PBS, 3 hours, 37°C. The protocol: NO scavenging activity of the pharmaceutical composition sensitive to nitrogen monoxide including the compound according to each of Examples 1 to 22, 29 to 31, and 33 to 35 was evaluated through a DAF-2 assay.
Specifically, a reagent stock solution was made using DMSO (dimethyl sulfoxide) in order to prepare 5 mM of DAF-2, 100 mM of SNAP and 5 mM of the compound synthesized in each of the Examples, and for the reaction, the solution was added to a PBS (phosphate buffered saline) solution so that DAF-2, SNAP and the compound had final concentrations of 10 µM, 100 µM and the concentration of Table 1, respectively, followed by a reaction for 3 hours in a 37°C incubator.

A short description of experiment [2]: DAF-2 assay of NO scavenging activity without and with H2O2 (ROS). It is filed as biochemical. As to conditions: SNAP 100 µM, DAF-2 10 µM, 3 hours, 37°C; for NO Scavenging Activity (%) (Mean±SD) With H2O2: H2O2 1 mM. Here is the method: The pharmaceutical composition sensitive to nitrogen monoxide including the compound according to each of Examples 23 to 28 and 32 may have scavenging activity for reactive oxygen species (ROS). NO scavenging activity of the pharmaceutical composition was evaluated through a DAF-2 assay.
Specifically, to a 100 µM solution of SNAP, the compound synthesized in each of the Examples was added at a concentration of the following Table 2, and reacted. Then 10 µM of DAF-2 was added thereto, followed by a reaction for 3 hours in a 37°C incubator.
Additionally, a stock solution of H2O2 (10 M) was added to the reaction solution so that SNAP and H2O2 had final concentrations of 100 µM and 1 mM, respectively. Then, the compound synthesized in each of the Examples was added thereto at a concentration of the following Table 11, followed by a reaction in the same manner, and NO scavenging activity was calculated by Equation 1.

As for `C[C@@H]1CCN(C(=O)CC#N)C[C@@H]1N(C)c1ncnc2c1ccn2C(=O)N(C)CCN(C)C(=O)Nc1ccccc1N` [Example 14, N-(2-(3-(2-aminophenyl)-1-methylureido)ethyl)-4-(((3R,4R)-1-(2-cyanoacetyl)-4-methylpiperidin-3-yl)(methyl)amino)-N-methyl-7H-pyrrolo[2,3-d]pyrimidine-7-carboxamide], the activity at 10 µM with Raw 264.7 cell line was determined as 46 ± 2.52%.

As for `CC1CC2C3CCC4=CC(=O)C=CC4(C)C3(F)C(O)CC2(C)C1(O)C(=O)COC(=O)Nc1ccccc1N` (centres unmarked) [Example 33, 2-(9-fluoro-11,17-dihydroxy-10,13,16-trimethyl-3-oxo-6,7,8,9,10,11,12,13,14,15,16,17-dodecahydro-3H-cyclopenta[a]phenanthren-17-yl)-2-oxoethyl (2-aminophenyl) carbamate], the “NO Scavenging Activity (%) (Mean±SD)” value is 2.22± 4.76% in experiment [1] (compound 1 µM), 1.72± 4.28% in experiment [1] (compound 5 µM) and 1.52± 10.22% in experiment [1] (compound 10 µM).

For the molecule `Cc1ccc(NC(=O)OCC(=O)C2(O)C(C)CC3C4CCC5=CC(=O)C=CC5(C)C4(F)C(O)CC32C)c(N)c1` (centres unmarked) [Example 34, 2-(9-fluoro-11,17-dihydroxy-10,13,16-trimethyl-3-oxo-6,7,8,9,10,11,12,13,14,15,16,17-dodecahydro-3H-cyclopenta[a]phenanthren-17-yl)-2-oxoethyl (2-amino-4-methylphenyl) carbamate], the “NO Scavenging Activity (%) (Mean±SD)” value in experiment [1] (compound 10 µM) came out at 0.76± 5.81%.

On to `COc1ccc(NC(=O)n2ccc3c(N(C)[C@H]4CN(C(=O)CC#N)CC[C@H]4C)ncnc32)c(N)c1` [Example 6, N-(2-amino-4-methoxyphenyl)-4-(((3R,4R)-1-(2-cyanoacetyl)-4-methylpiperidin-3-yl)(methyl)amino)-7H-pyrrolo[2,3-d]pyrimidine-7-carboxamide], for which the activity at 10 µM in the experiment on Raw 264.7 cell line was 68.5 ± 0.11%.

For `C[C@@H]1CCN(C(=O)CC#N)C[C@@H]1N(C)c1ncnc2c1ccn2C(=O)N(C)CCN(C)C(=O)Nc1ccc(O)cc1N` [Example 19, N-(2-(3-(2-amino-4-hydroxyphenyl)-1-methylureido)ethyl)-4-(((3R,4R)-1-(2-cyanoacetyl)-4-methylpiperidin-3-yl) (methyl)amino)-N-methyl-7H-pyrrolo[2,3-d]pyrimidine-7-carboxamide], the activity at 10 µM with Raw 264.7 cell line stood at 54.1 ± 2.51%.

“N-(2-(3-(2-amino-5-hydroxyphenyl)-1-methylureido)ethyl)-4-(((1S,2R)-5-(2-cyanoacetyl)-2-methylcyclohexyl) (methyl)amino)-N-methyl-7H-pyrrolo[2,3-d]pyrimidine-7-carboxamide [Example 20]”: the “NO Scavenging Activity (%) (Mean±SD)” value with Raw 264.7 cell line (10 µM, Raw 264.7, LPS 500 ng/mL) amounted to 59.5±0.11%.

In the case of `CC[C@@H]1CN(C(=O)NCC(F)(F)F)C[C@@H]1c1cnc2cnc3c(ccn3C(=O)Nc3cc4c(cc3N)n(C)c(=O)n4C)n12` [Example 31, N-(6-amino-1,3-dimethyl-2-oxo-2,3-dihydro-1H-benzo[d]imidazol-5-yl)-8-((3R,4S)-4-ethyl-1-((2,2,2-trifluoroethyl)carbamoyl)pyrrolidin-3-yl)-3H-imidazo[1,2-a]pyrrolo[2,3-e]pyrazine-3-carboxamide], the “NO Scavenging Activity (%) (Mean±SD)” value in experiment [1] (compound 1 µM) is given as 79.61 ±3.60%; in experiment [1] (compound 5 µM), 90.34 ±0.98%; in experiment [1] (compound 10 µM) it was 92.21 ±0.98%.

For `COc1ccc(NC(=O)N(C)CCN(C)C(=O)n2ccc3c(N(C)[C@H]4CN(C(=O)CC#N)CC[C@H]4C)ncnc32)c(N)c1` [Example 17, N-(2-(3-(2-amino-4-methoxyphenyl)-1-methylureido)ethyl)-4-(((3R,4R)-1-(2-cyanoacetyl)-4-methylpiperidin-3-yl) (methyl)amino)-N-methyl-7H-pyrrolo[2,3-d]pyrimidine-7-carboxamide], the activity at 10 µM with Raw 264.7 cell line is 29.6 ± 2.95%.

Consider `C[C@@H]1CCN(C(=O)CC#N)C[C@@H]1N(C)c1ncnc2c1ccn2C(=O)Nc1ccc(O)cc1N` [Example 8, N-(2-amino-4-hydroxyphenyl)-4-(((3R,4R)-1-(2-cyanoacetyl)-4-methylpiperidin-3-yl)(methyl)amino)-7H-pyrrolo[2,3-d]pyrimidine-7-carboxamide], for which the activity at 10 µM in the experiment with Raw 264.7 cell line amounted to 72.6 ± 0.31%.

For the molecule `C[C@@H]1CCN(C(=O)CC#N)C[C@@H]1N(C)c1ncnc2c1ccn2C(=O)Nc1cc(O)ccc1N` [Example 9, N-(2-amino-5-hydroxyphenyl)-4-(((3R,4R)-1-(2-cyanoacetyl)-4-methylpiperidin-3-yl)(methyl)amino)-7H-pyrrolo[2,3-d]pyrimidine-7-carboxamide], the activity at 10 µM in the experiment on Raw 264.7 cell line is 78.9 ± 0.21%.

Regarding “cyanocobalamin [Vitamin B12, reference compound]”, the “NO Scavenging Activity (%) (Mean±SD)” value was 3.18± 1.03% in experiment [1] (compound 1 µM); 8.98± 2.46% in experiment [1] (compound 5 µM); 12.37 ±3.73% in experiment [1] (compound 10 µM); 41.09 ±1.57% in experiment [1] (compound 100 µM); 99.48 ±0.95% in experiment [1] (compound 1,000 µM).

As to `CC[C@@H]1CN(C(=O)NCC(F)(F)F)C[C@@H]1c1cnc2cnc3c(ccn3C(=O)Nc3cc4c(cc3NC(=O)OCc3ccc(B(O)O)cc3)n(C)c(=O)n4C)n12` [Example 32, (4-((((6-(8-((3R,4S)-4-ethyl-1-((2,2,2-trifluoroethyl)carbamoyl)pyrrolidin-3-yl)-3H-imidazo[1,2-a]pyrrolo[2,3-e]pyrazine-3-carboxamido)-1,3-dimethyl-2-oxo-2,3-dihydro-1H-benzo[d]imidazol-5-yl)carbamoyl)oxy)methyl)phenyl)boronic acid], the “NO Scavenging Activity (%) (Mean±SD) Without H2O2” value in experiment [2] (compound 1 µM) turned out to be 6.42± 10.86%; in experiment [2] (compound 5 µM) it was 6.84± 5.21%; in experiment [2] (compound 10 µM), 9.26± 5.51%. Moreover, the “NO Scavenging Activity (%) (Mean±SD) With H2O2” value in experiment [2] (compound 1 µM) amounted to 4.05± 3.57%; in experiment [2] (compound 5 µM), 29.92 ±7.09%; in experiment [2] (compound 10 µM), 32.06 ±3.99%.

As for `COc1ccc(N)c(NC(=O)n2ccc3c(N(C)[C@H]4CN(C(=O)CC#N)CC[C@H]4C)ncnc32)c1` [Example 7, N-(2-amino-5-methoxyphenyl)-4-(((3R,4R)-1-(2-cyanoacetyl)-4-methylpiperidin-3-yl)(methyl)amino)-7H-pyrrolo[2,3-d]pyrimidine-7-carboxamide], in the experiment with Raw 264.7 cell line, the activity at 10 µM stood at 88.2 ± 0.06%.

Values taken from EP4741395A1, “NOVEL COMPOUND SENSITIVE TO NITROGEN MONOXIDE AND PHARMACEUTICAL COMPOSITION COMPRISING SAME” (Omniamed Co. Ltd, priority 2023, dated 2025).
